Values of other authors as cited in patent US7125702B2, “Process for the preparation of angiotensis converting enzyme (ACE) inhibitors and its use” (Council of Scientific and Industrial Research, priority 2003, dated 2006).

Assays:
[1] = biological target: angiotensin-converting enzyme (Homo sapiens, UniProt P12821); conditions: read-out: IC50 (ACE inhibition)
[2] = tested on: blood pressure
[3] = biological target: angiotensin I-converting enzyme (Homo sapiens, UniProt P12821); conditions: read-out: IC50 (ACE inhibition)
Chain of angiotensin I-converting enzyme (P12821 30-1306): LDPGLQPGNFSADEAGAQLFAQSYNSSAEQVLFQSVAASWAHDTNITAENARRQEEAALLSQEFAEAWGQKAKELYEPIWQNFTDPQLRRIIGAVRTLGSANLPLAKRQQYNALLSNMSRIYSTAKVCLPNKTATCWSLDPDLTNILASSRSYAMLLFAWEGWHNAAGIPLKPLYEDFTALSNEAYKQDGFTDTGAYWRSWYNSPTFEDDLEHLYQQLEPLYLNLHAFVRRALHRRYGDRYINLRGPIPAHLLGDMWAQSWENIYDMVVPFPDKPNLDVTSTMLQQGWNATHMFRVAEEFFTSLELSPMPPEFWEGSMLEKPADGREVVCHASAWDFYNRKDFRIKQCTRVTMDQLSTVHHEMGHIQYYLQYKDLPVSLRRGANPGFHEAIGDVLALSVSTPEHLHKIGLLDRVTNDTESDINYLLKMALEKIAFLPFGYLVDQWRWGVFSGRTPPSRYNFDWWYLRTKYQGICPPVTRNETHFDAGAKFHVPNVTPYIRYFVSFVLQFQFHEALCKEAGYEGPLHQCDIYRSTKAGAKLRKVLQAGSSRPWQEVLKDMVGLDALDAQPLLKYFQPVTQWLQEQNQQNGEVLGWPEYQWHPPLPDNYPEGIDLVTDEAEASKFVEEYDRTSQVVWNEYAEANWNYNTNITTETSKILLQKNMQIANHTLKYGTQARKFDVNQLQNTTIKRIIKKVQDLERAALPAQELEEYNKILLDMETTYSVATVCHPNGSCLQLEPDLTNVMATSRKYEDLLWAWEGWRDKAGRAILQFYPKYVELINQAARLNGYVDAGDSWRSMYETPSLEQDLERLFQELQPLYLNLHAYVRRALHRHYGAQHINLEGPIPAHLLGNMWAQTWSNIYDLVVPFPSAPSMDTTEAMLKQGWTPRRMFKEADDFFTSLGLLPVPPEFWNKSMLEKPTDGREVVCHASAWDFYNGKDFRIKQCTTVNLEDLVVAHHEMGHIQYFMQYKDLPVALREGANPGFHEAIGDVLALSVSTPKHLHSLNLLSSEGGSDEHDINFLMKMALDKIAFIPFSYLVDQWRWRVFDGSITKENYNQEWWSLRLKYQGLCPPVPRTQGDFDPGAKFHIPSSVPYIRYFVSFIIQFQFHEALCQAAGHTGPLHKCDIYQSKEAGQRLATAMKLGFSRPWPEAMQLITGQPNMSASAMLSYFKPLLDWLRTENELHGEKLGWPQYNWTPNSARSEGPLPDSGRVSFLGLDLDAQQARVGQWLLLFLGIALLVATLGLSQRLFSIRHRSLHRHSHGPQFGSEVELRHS

[4] = tested on: spontaneously hypertensive rats; conditions: 30 mg/kg intravenous injection

Chain of angiotensin-converting enzyme (P12821 30-1306): as above

Substance | IC50 [1] | IC50 [3] | further results
Leu-Ser-Pro [tripeptide from thermolysin hydrolysate of α-zein] | 1.7 µM |  | 
Leu-Asn-Pro [tripeptide from thermolysin hydrolysate of α-zein] | 1.9 µM |  | 
His-His-Leu |  |  | pressure in the aorta ([2]; synthetic peptide): significant pressure decrease; systolic blood pressure decrease ([2]; triple injections of the peptide): 61 mm Hg
Asp-Gly |  | 12.3 µM | 
Ap-Leu-Pro |  | 4.8 µM | 
Leu-Arg-Pro [tripeptide from thermolysin hydrolysate of α-zein] | 0.27 µM |  | blood pressure decrease [4]: 15 mm Hg
